The source of these data is patent publication US9586961B2, “Homopiperazine derivatives as protein tyrosine kinase inhibitors and pharmaceutical use thereof” (LEO PHARMA A/S, priority 2010, dated 2017).

Structures are written as SMILES.

Assay type in all cases: biochemical
The target in one assay is T1, JAK1 (Homo sapiens, UniProt P23458).
T1 construct: JAK1 (aa 850-1154) and TYK2 (aa 871-1187) are expressed with an N-terminally fused GST-tag; GST (N); purchased Carna Biosciences, Inc; host or cells: baculovirus expression system
Put plainly: JAK1 kinase assay (HTRF, inhibition of phosphorylation of a synthetic peptide). The conditions noted are these: catalytic domain aa 850-1154, GST-tag; 7 μM ATP (Km); read-out: JAK1 kinase inhibitory activity (EC50). Here is the method: (§1) JAK1, JAK2, JAK3 and TYK2 Kinase Assays:
(§2) Human baculovirus-expressed JAK1, 2, 3 and TYK2 were purchased from Carna Biosciences, Inc. All four purified enzymes contain only the catalytic domain. JAK1 (aa 850-1154) and TYK2 (aa 871-1187) are expressed with an N-terminally fused GST-tag, and JAK2 and JAK3 with an N-terminally fused His-tag. Inhibition of phosphorylation of a synthetic peptide was measured in an HTRF-based assay using the TK substrate-Biotin from the CisbioHTRFKinEASE TK kit. First, 2 μl of TK solution (TK substrate-biotin in kinase buffer [1× enzymatic buffer from HTRFKinEASE TK kit, 1 mM DTT]) is added to a plate containing 1 μl prediluted compound (final assay concentration DMSO: 0.75%). Then, 5 μl kinase-ATP mix (prepared in kinase buffer) is added to the wells and the plates are incubated at RT for 20-30 min. For all four kinases a concentration of ATP that corresponded to the Km for ATP was used. The final concentrations of buffers, substrate, kinase and ATP were: JAK1: 50 mMHepes buffer pH 7.0, 0.01% BSA, 10 mM MgCl2, 1 mM DTT, 7 μM ATP, 50 nMSEB, 1 μM TK Substrate-Biotin and 5 ng JAK1; JAK2: 50 mM Hepes buffer pH 7.0, 0.01% BSA, 5 mM MgCl2, 1 mM DTT, 4 μM ATP, 1 μM TK Substrate-Biotin and 0.1 ng JAK2; JAK3: 50 mMHepes buffer pH 7.0, 0.01% BSA, 5 mM MgCl2, 1 mM DTT, 2 μM ATP, 1 μM TK Substrate-Biotin and 0.3 ng JAK3; TYK2: 50 mMHepes buffer pH 7.0, 0.01% BSA, 5 mM MgCl2, 1 mM DTT, 13 μM ATP, 50 nMSEB, 1 μM TK Substrate-Biotin and 0.8 ng TYK2. Thereafter, the kinase reaction is stopped by adding 4 μl detection mix (final concentrations: 50 mM Hepes buffer pH 7.0, 0.01% BSA, 0.8 M KF, 20 mM EDTA, 42 nM Streptavidin-XL665 and 1:400 STKAbCryptate) and the plates are incubated overnight in the dark. The HTRF signal is read using an Envision plate reader.
(In general: In TR-FRET formats the signal depends on donor and acceptor labels being close together.)

The next assay deals with T2, JAK2 (Homo sapiens, UniProt O60674).
T2 construct: All four purified enzymes contain only the catalytic domain; His (N); purchased Carna Biosciences, Inc; host or cells: baculovirus expression system
The assay can be described thus: JAK2 kinase assay (HTRF, inhibition of phosphorylation of a synthetic peptide). The following applies: catalytic domain, His-tag; 4 μM ATP (Km); read-out: JAK2 kinase inhibitory activity (EC50). Here is the method: as §1, §2

A further assay concerns the target T3, JAK3 (Homo sapiens, UniProt P52333).
T3 construct: All four purified enzymes contain only the catalytic domain; His (N); purchased Carna Biosciences, Inc; host or cells: baculovirus expression system
Put plainly: JAK3 kinase assay (HTRF, inhibition of phosphorylation of a synthetic peptide). The following applies: catalytic domain, His-tag; 2 μM ATP (Km); read-out: JAK3 kinase inhibitory activity (EC50). Here is the method:
as §1, §2

T2 sequence (O60674 849-1124 limits assumed): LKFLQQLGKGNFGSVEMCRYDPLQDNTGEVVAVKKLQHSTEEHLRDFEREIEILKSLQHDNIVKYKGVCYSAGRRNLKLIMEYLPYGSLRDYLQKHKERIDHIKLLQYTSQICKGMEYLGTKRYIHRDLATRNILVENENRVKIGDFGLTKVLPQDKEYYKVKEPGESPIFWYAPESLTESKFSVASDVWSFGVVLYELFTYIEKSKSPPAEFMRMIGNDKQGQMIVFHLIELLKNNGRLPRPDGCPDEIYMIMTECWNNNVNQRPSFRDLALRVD
T1 sequence (P23458 850-1154): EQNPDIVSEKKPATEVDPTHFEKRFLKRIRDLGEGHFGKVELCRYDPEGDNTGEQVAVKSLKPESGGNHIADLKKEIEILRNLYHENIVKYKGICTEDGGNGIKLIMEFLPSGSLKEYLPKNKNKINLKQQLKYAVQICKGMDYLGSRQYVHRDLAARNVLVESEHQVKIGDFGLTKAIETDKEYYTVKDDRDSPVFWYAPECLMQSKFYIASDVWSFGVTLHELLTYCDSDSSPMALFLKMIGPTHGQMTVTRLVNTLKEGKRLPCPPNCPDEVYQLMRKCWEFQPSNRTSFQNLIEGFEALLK
T3 sequence (P52333 822-1111 limits assumed): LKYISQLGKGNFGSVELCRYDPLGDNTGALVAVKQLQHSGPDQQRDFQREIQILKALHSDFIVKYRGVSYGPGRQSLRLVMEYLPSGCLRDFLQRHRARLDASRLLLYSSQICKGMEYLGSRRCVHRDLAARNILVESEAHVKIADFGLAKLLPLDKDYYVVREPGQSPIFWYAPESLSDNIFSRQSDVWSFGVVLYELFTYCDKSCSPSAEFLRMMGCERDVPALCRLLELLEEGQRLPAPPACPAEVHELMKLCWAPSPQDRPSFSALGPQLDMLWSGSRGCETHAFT

As for `CCCC1=NOC(C(=O)N2CCCN(c3ncnc4[nH]ccc34)CC23CC3)C1` (stereo not drawn) [Example 124, (3-propyl-4,5-dihydroisoxazol-5-yl)-[5-(7H-pyrrolo[2,3-d]pyrimidin-4-yl)-5,9-diazaspiro[2.6]nonan-9-yl]methanone], the half-maximal effective concentration (EC50) at JAK1, at JAK2 and at JAK3 was 0.1 to 1 µM in each case.

For `O=C(Cc1ccc(Cl)cc1)N1CCCN(c2ncnc3[nH]ccc23)CC12CC2` [Example 126, 2-(4-chlorophenyl)-1-[5-(7H-pyrrolo[2,3-d]pyrimidin-4-yl)-5,9-diazaspiro[2.6]nonan-9-yl]ethanone], the figures for the concentration giving a half-maximal response (EC50) on JAK1, at JAK2 and at JAK3 were 0.1 to 1 µM, less than 0.1 µM and 0.1 to 1 µM, respectively.

`O=C(c1cccnc1)N1CCN(c2ncnc3[nH]ccc23)CC2(CC2)C1` [Example 127, 3-pyridyl-[5-(7H-pyrrolo[2,3-d]pyrimidin-4-yl)-5,8-diazaspiro[2.6]nonan-8-yl]methanone]: the EC50 at JAK1 is 0.1 to 1 µM; at JAK2, 0.1 to 1 µM; at JAK3, more than 1 µM.

Consider `O=C(c1cccnc1)N1CCCN(c2ncnc3[nH]ccc23)CC12CC2` [Example 128, 3-pyridyl-[5-(7H-pyrrolo[2,3-d]pyrimidin-4-yl)-5,9-diazaspiro[2.6]nonan-9-yl]methanone], for which the values for the 50% effective concentration (EC50) at JAK1, on JAK2 and at JAK3 were 0.1 to 1 µM, 0.1 to 1 µM and more than 1 µM, respectively.

As for `O=C(c1ccncc1)N1CCN(c2ncnc3[nH]ccc23)CC2(CC2)C1` [Example 129, 4-pyridyl-[5-(7H-pyrrolo[2,3-d]pyrimidin-4-yl)-5,8-diazaspiro[2.6]nonan-8-yl]methanone], the values for the concentration for a half-maximal effect (EC50) at JAK1, on JAK2 and at JAK3 were 0.1 to 1 µM, 0.1 to 1 µM and more than 1 µM, respectively.

Take `O=C(c1ccncc1)N1CCCN(c2ncnc3[nH]ccc23)CC12CC2` [Example 130, 4-pyridyl-[5-(7H-pyrrolo[2,3-d]pyrimidin-4-yl)-5,9-diazaspiro[2.6]nonan-9-yl]methanone]: the concentration for a half-maximal effect (EC50) is 0.1 to 1 µM on JAK1, 0.1 to 1 µM at JAK2 and more than 1 µM on JAK3.

Consider `O=C(c1ccc(O)nc1)N1CCN(c2ncnc3[nH]ccc23)CC2(CC2)C1` [Example 131, (6-hydroxy-3-pyridyl)-[5-(7H-pyrrolo[2,3-d]pyrimidin-4-yl)-5,8-diazaspiro[2.6]nonan-8-yl]methanone], for which the half-maximal effective concentration (EC50) at JAK1, on JAK2 and at JAK3 was 0.1 to 1 µM throughout.

Take `O=C(c1ccc(O)nc1)N1CCCN(c2ncnc3[nH]ccc23)CC12CC2` [Example 132, (6-hydroxy-3-pyridyl)-[5-(7H-pyrrolo[2,3-d]pyrimidin-4-yl)-5,9-diazaspiro[2.6]nonan-9-yl]methanone]: the EC50 on JAK1, on JAK2 and at JAK3 was 0.1 to 1 µM throughout.

`O=C(c1c[nH]cn1)N1CCN(c2ncnc3[nH]ccc23)CC2(CC2)C1` [Example 133, 1H-imidazol-4-yl-[5-(7H-pyrrolo[2,3-d]pyrimidin-4-yl)-5,8-diazaspiro[2.6]nonan-8-yl]methanone]: the EC50 at JAK1, on JAK2 and on JAK3 was 0.1 to 1 µM in each case.

With `O=C(c1c[nH]cn1)N1CCCN(c2ncnc3[nH]ccc23)CC12CC2` [Example 134, 1H-imidazol-4-yl-[5-(7H-pyrrolo[2,3-d]pyrimidin-4-yl)-5,9-diazaspiro[2.6]nonan-9-yl]methanone], the EC50 on JAK1, at JAK2 and on JAK3 was 0.1 to 1 µM each time.

On to `Cc1ncccc1C(=O)N1CCN(c2ncnc3[nH]ccc23)CC2(CC2)C1` [Example 135, (2-methyl-3-pyridyl)-[5-(7H-pyrrolo[2,3-d]pyrimidin-4-yl)-5,8-diazaspiro[2.6]nonan-8-yl]methanone], for which the EC50 on JAK1, at JAK2 and at JAK3 was more than 1 µM throughout.

With `Cc1ncccc1C(=O)N1CCCN(c2ncnc3[nH]ccc23)CC12CC2` [Example 136, (2-methyl-3-pyridyl)-[5-(7H-pyrrolo[2,3-d]pyrimidin-4-yl)-5,9-diazaspiro[2.6]nonan-9-yl]methanone], the EC50 is more than 1 µM on JAK1, 0.1 to 1 µM at JAK2 and more than 1 µM on JAK3.

On to `Cc1cnccc1C(=O)N1CCN(c2ncnc3[nH]ccc23)CC2(CC2)C1` [Example 137, (3-methyl-4-pyridyl)-[5-(7H-pyrrolo[2,3-d]pyrimidin-4-yl)-5,8-diazaspiro[2.6]nonan-8-yl]methanone], for which the half-maximal effective concentration (EC50) was more than 1 µM at JAK1, 0.1 to 1 µM on JAK2 and more than 1 µM at JAK3.

As for `Cc1cnccc1C(=O)N1CCCN(c2ncnc3[nH]ccc23)CC12CC2` [Example 138, (3-methyl-4-pyridyl)-[5-(7H-pyrrolo[2,3-d]pyrimidin-4-yl)-5,9-diazaspiro[2.6]nonan-9-yl]methanone], the EC50 was more than 1 µM at JAK1, 0.1 to 1 µM at JAK2 and more than 1 µM at JAK3.

Regarding `O=C(c1ccnnc1)N1CCN(c2ncnc3[nH]ccc23)CC2(CC2)C1` [Example 139, pyridazin-4-yl-[5-(7H-pyrrolo[2,3-d]pyrimidin-4-yl)-5,8-diazaspiro[2.6]nonan-8-yl]methanone], the EC50 on JAK1 was 0.1 to 1 µM; at JAK2 it was 0.1 to 1 µM; at JAK3, more than 1 µM.

As to `Cc1nc(C)c(CC(=O)N2CCCN(c3ncnc4[nH]ccc34)CC23CC3)s1` [Example 140, 2-(2,4-dimethylthiazol-5-yl)-1-[5-(7H-pyrrolo[2,3-d]pyrimidin-4-yl)-5,9-diazaspiro[2.6]nonan-9-yl]ethanone], the EC50 on JAK1, at JAK2 and on JAK3 was more than 1 µM in each case.

On to `Cc1cc(C(=O)N2CCN(c3ncnc4[nH]ccc34)CC3(CC3)C2)n(C)n1` [Example 143, (2,5-dimethylpyrazol-3-yl)-[5-(7H-pyrrolo[2,3-d]pyrimidin-4-yl)-5,8-diazaspiro[2.6]nonan-8-yl]methanone], for which the concentration for a half-maximal effect (EC50) on JAK1, on JAK2 and at JAK3 was more than 1 µM each time.

In the case of `Cn1cncc1C(=O)N1CCN(c2ncnc3[nH]ccc23)CC2(CC2)C1` [Example 144, (3-methylimidazol-4-yl)-[5-(7H-pyrrolo[2,3-d]pyrimidin-4-yl)-5,8-diazaspiro[2.6]nonan-8-yl]methanone], the half-maximal effective concentration (EC50) at JAK1 is 0.1 to 1 µM; on JAK2, 0.1 to 1 µM; on JAK3, more than 1 µM.

With `Cn1cncc1C(=O)N1CCCN(c2ncnc3[nH]ccc23)CC12CC2` [Example 145, (3-methylimidazol-4-yl)-[5-(7H-pyrrolo[2,3-d]pyrimidin-4-yl)-5,9-diazaspiro[2.6]nonan-9-yl]methanone], the 50% effective concentration (EC50) at JAK1 is 0.1 to 1 µM; at JAK2, 0.1 to 1 µM; at JAK3, more than 1 µM.

For the compound `Cc1nnsc1C(=O)N1CCN(c2ncnc3[nH]ccc23)CC2(CC2)C1` [Example 146, (4-methylthiadiazol-5-yl)-[5-(7H-pyrrolo[2,3-d]pyrimidin-4-yl)-5,8-diazaspiro[2.6]nonan-8-yl]methanone], the concentration for a half-maximal effect (EC50) is 0.1 to 1 µM at JAK1, 0.1 to 1 µM at JAK2 and more than 1 µM on JAK3.

`Cc1nnsc1C(=O)N1CCCN(c2ncnc3[nH]ccc23)CC12CC2` [Example 147, (4-methylthiadiazol-5-yl)-[5-(7H-pyrrolo[2,3-d]pyrimidin-4-yl)-5,9-diazaspiro[2.6]nonan-9-yl]methanone]: the EC50 on JAK1 was 0.1 to 1 µM; on JAK2 it was 0.1 to 1 µM; at JAK3, more than 1 µM.

As to `Cc1cc(C(=O)N2CCN(c3ncnc4[nH]ccc34)CC3(CC3)C2)[nH]n1` [Example 148, (5-methyl-1H-pyrazol-3-yl)-[5-(7H-pyrrolo[2,3-d]pyrimidin-4-yl)-5,8-diazaspiro[2.6]nonan-8-yl]methanone], the EC50 at JAK1 was 0.1 to 1 µM; at JAK2, 0.1 to 1 µM; on JAK3 it was more than 1 µM.

As a reminder, the EC50 is the concentration at which the effect is half-maximal.
